Tested on: symptoms of leaky gut
Assay: Preliminary testing: effect on symptoms of leaky gut
Assay type: in vivo
Description: This may be due to the failure of the D amino acid isomer to be transported by the different L amino acid transport systems that exist within the body, or by completion for renal excretion that allows the L isomer to persist for a longer duration.

C[C@](N)(Cc1ccc(O)cc1)C(=O)O (single isomer, unassigned) [Demser, α-methyl-L-tyrosine]
duration of effect on leaky gut symptoms: short lived | effect on the symptoms of leaky gut: beneficial effect

From patent US12453709B2, “Compositions and methods for treating autism” (priority 2013, dated 2025)
